{"source": "patent US20150157682A1", "about": "“VALERIAN EXTRACTS AND USES THEREOF” (priority 2012, published 2015)", "molecular_target": "benzodiazepine receptors (3H-flunitrazepam labelled binding sites)", "assay": "3H-flunitrazepam competition binding assay, crude synaptosomal membranes of rat frontal cortex", "settings": "1 nM 3H-flunitrazepam", "method": "For the binding experiment male RjHan:WI rats (Janvier, Le Genest-Saint-Isle, France) were used. […] The animals were housed in groups of 5 in Macrolon IV cages.\nFor the ^3H-GABA binding assay tissue (dissected rat frontal cortex) was homogenized in 50 mM Tris-HCl buffer pH 7.4 containing 120 mM NaCl, 5 mM KCl, 2 mM CaCl2 and 1 mM MgCl2; for ^3H-flunitrazepam it was homogenized in 50 mM Tris-HCl buffer pH 7.4 containing 1 mM EGTA, 10 mM EDTA and 3 mM MgCl2, centrifuged (50.000 g, 15 min) and washed twice with the corresponding buffer. The resulting pellet was resuspended with buffer. […] Specific binding was calculated by subtracting non-specific binding—defined as that seen in the presence of 1 μM unlabelled GABA or 1 μM diazepam or chlordiazepoxide—from the total binding obtained with radioligand alone. In parallel VE-1, VE-2 and AVA were used for all binding assays. The incubation was terminated by addition of ice-cold buffer and rapid filtration through glass fibre filters. The filters were washed, dried, a scintillation cocktail was added, and radioactivity was counted using a β-counter (Beckman Coulter, Germany)."}
{"smiles": "CN1C(=O)CN=C(c2ccccc2)c2cc(Cl)ccc21", "note": "[Diazepam, diazepam]", "values": [{"measurement": "EC50", "value": "400 ± 50", "unit": "nM"}]}
